# Laboratory results published in patent US12109266B2, “Modulating gabarap to modulate immunogenic cell death” (Dana-Farber Cancer Institute, Inc., priority 2020, dated 2024).
# “Also recorded” adds a separate entry of the source.
# What was measured:
# [1] = system: AMO1, H929 and KMS11 MM cells; test: Phagocytosis assay of MM cells by monocyte-derived DCs; format: cell-based, human
# Protocol: (§1) Mo-DCs were generated from CD14+ peripheral blood monocytes were positively selected using magnetic beads (Miltenyi Biotec) and cultured for 6 days in mo-DC differentiation medium containing GM-CSF and IL-4 (130-094-812; Miltenyi Biotec) to generate Mo-DCs. AMO1, KMS11 and H929 cells lines, as well as patient MM cells, were stained with CellTrace™ Far Red (ThermoFisher Scientific), cultured with or without BTZ (for 16 h), and then incubated in 48-well plates for 4 h at 1:1 ratio with CellTrace™ CFSE stained Mo-DCs. Cells were then collected, and phagocytosis analysis was performed by flow cytometry and confocal microscopy. Analagous phagocytosis experiments was performed using 5TGM1 murine MM and immature murine DC line JAWSII.
# Collected cells were analyzed using the BD LRSFortessa™ X-20 flow cytometer. Mo-DCs that engulfed MM cells were CFSE and FAR-RED double positive. Fold increase in percentage of double positive DCs after co-culture with BTZ treated vs untreated MM cells was compared.
# Mo-DCs were generated from CD14+ peripheral blood monocytes from healthy donors, positively selected using magnetic beads (Miltenyi Biotec), cultured for 6 days in mo-DC differentiation medium containing GM-CSF and IL-4 (130-094-812; Miltenyi Biotec). AMO1 and NCI-H929 cells lines, as well as patient MM cells, were stained with CellTrace™ Far Red (ThermoFisher Scientific), cultured with or without BTZ for 16 h, and then incubated in 48-well plates for 4 h at 1:1 ratio with CellTrace™ CFSE stained Mo-DCs. Cells were then collected, and phagocytosis analysis was performed by flow cytometry and confocal microscopy. Analagous phagocytosis experiments were performed using 5TGM1 murine multiple myeloma and JAWSII cell line that was used as source of immature murine DCs.
# Flow cytometry-based assay: Collected cells were analyzed using the BD LRSFortessa X-20 flow cytometer. Mo-DCs that engulfed MM cells were CFSE and FAR-RED double positive. Fold increase in percentage of double positive DCs after co-culture with BTZ treated vs untreated MM cells was compared.
# [2] = system: type-I IFN response in AMO1 and NCI-H929 MM cells; test: Type-I IFN response in MM cells (RNA-seq, qRT-PCR, ELISA); format: cell-based, human; conditions: BTZ 5 nM
# Protocol: Total RNA from multiple myeloma cells was prepared with TRIzol™ (ThermoFisher Scientific) and RNA Clean and Concentrator™-5 kit (Zymo Research) following the product instructions. RNA integrity and quantity was assessed by NanoDrop Spectrophotometer (ThermoFisher Scientific). For analysis of mRNA expression, oligo-dT-primed cDNA was obtained using the High Capacity cDNA Reverse Transcription Kit (ThermoFisher Scientific), and used as template to quantify: human and murine IFNA1 (Hs03044218_g1, Mm03030145_gH), human and murine IFNB1 (Hs01077958_s1, Mm00439552_s1), human and murine CXCL9 (Hs00171065_ml, Mm00434946_ml), and human and murine GAPDH (Hs02786624_g1, Mm99999915_g1). Analysis was determined by RT-PCR using TaqMan®Fast Universal PCR Master Mix on a 7500 Fast Real-Time PCR System (ThermoFisher Scientific). Comparative RT-PCR was performed in triplicate. Relative expression was calculated using the comparative […] (Ct) method.
# AMO1^WT and STING^KO cells were either untreated or treated with BTZ for 24 h. Supernatant was collected, and secretion of CXCL9 chemokines was analyzed by MIG (CXCL9) Human Instant ELISA™ Kit (#BMS285INST, ThermoFisher Scientific).
# AMO1 WT and STING^KO were cultured for 16 h in the presence of absence of BTZ (5 nM). RNA was extracted as previously described and submitted to NovaSeq RNAseq analysis followed by VIPER NGS Analysis pipeline (Cornwell et al. (2018) BMC Bioinformatics; 19(1):135). Lists of DEGs were applied to the GSEA software. RNAseq data have been submitted to Gene Expression Omnibus (accession number: GSE171837).
# [3] = system: AMO1 and NCI-H929 MM cells; test: Micronuclei assay (flow cytometry); format: cell-based, human; conditions: AMO1 (0-7.5 nM) and NCI-H929 (0-5 nM), 16 h
# Protocol: Cells were analyzed for micronuclei formation using a flow cytometry-based Micronucleus Assay (MicroFlow kit), according to manufacturer's protocol. Briefly, nonviable cells were removed by Ficoll gradient centrifugation. Viable cells were then stained with photoactivated Nucleic Acid Dye A (ethidium monoazide) that crosses the compromised outer membrane of apoptotic and necrotic cells and stains them red. Cells were then washed twice and lysed with a detergent containing buffer to break open cytoplasmic membranes and release nuclei and micronuclei. Nucleic Acid Dye B (SYTOX green) is then added to label DNA from both nuclei and micronuclei. Flow cytometry analysis was used to distinguish DNA from dead (dual stained with Dye A and B) and live (single stained with Dye B) cells.
# 5TGM1 MM cells = test: Phagocytosis assay of MM cells by JAWSII DCs; format: cell-based, murine
# Protocol: as §1
# Collected cells were analyzed using the BD LRSFortessa™ X-20 flow cytometer. Mo-DCs that engulfed MM cells were CFSE and FAR-RED double positive. Fold increase in percentage of double positive DCs after co-culture with BTZ treated vs untreated MM cells was compared. […]
# Flow cytometry-based assay: Collected cells were analyzed using the BD LRSFortessa X-20 flow cytometer. […]
# Confocal microscopy-based assay: 5TGM1 cells (15000) were cytospun for 7 min at 300 rpm, fixed in 4% paraformaldehyde for 20 min at RT, and washed three times with 1% FBS in PBS. […] Slides were examined using Yokogawa Spinning Disk Confocal/TIRF System, and analyzed with ImageJ software.
# human DCs = test: DCs maturation assay; format: cell-based
# Protocol: Immature DCs were generated as described above (“Generation of Mo-DCs” section). DCs were cultured alone or with untreated or BTZ pretreated-AMO1 (5 nM) for 24 h. DCs alone were cultured i) without maturation stimuli; ii) with 50 ng/ml of TNFalpha (Millipore Sigma); or iii) with 5 nM of BTZ. After 24 h, cells were harvested and analyzed by flow cytometry using the following Abs: anti-CD83-APC (#551073), CD86-FITC (#555657) and 7-AAD from BD Biosciences and CD11c-BV650 (#563404, Biolegend). Dead cells were excluded by 7-AAD positivity, and CD83 and CD86 expression was evaluated on CD11c+ cells.
compound,measurement,setting,value
"CC(C)C[C@H](NC(=O)[C@H](Cc1ccccc1)NC(=O)c1cnccn1)B(O)O [BTZ, bortezomib]",phagocytosis of BTZ-treated MM cells by DCs,"[1]; AMO1, NCI-H929 WT, BTZ 16 h, then 4 h co-culture",induces functional maturation of dendritic cells (DCs) in vitro; also recorded: enhanced uptake of BTZ-treated MM cells; also recorded: engulfed by monocyte-derived DCs after 4 h of co-culture
same,phagocytosis of BTZ-treated MM cells by DCs,[1]; AMO1 GABARAP^KO,did not stimulate phagocytosis by DCs; also recorded: GABARAP^KO abrogates phagocytosis by DCs
same,induction of ICD,"[1]; GABARAP^KO in 2 ICD-sensitive cell lines (AMO1, H929)",abrogated the induction of ICD by BTZ
same,induction of ICD,[1]; KMS11 / GABARAP-null cells,resistant to induction of ICD by BTZ
same,induction of ICD,"[1]; KMS11 / GABARAP-null cells, listed as Bortezomib",does not induce ICD in GABARAP-null cells
same,functional maturation of co-cultured DCs (phagocytosis assay),[1]; KMS11 cells (monoallelic deletion of GABARAP),did not lead to an increase of CRT exposure or functional maturation of co-cultured DCs
same,type-I IFN response gene sets (RNA-seq),"[2]; AMO1, 16 h",positive enrichment of gene sets included in the type-I IFN response hallmark signature; also recorded: MM cells engage in a type I IFN response after treatment with BTZ
same,CXCL9 transcript and secreted CXCL9 (ELISA),[2]; AMO1 STING^KO,neither CXCL9 transcript or its secreted form were detected
same,"type-I IFN response (RNA-seq; IFNA1, IFNB1 qRT-PCR)",[2]; AMO1 STING^KO,did not activate transcription of genes in the IFNs response or increase the levels of IFNA1 and IFNB1 transcripts; also recorded: STING dependent
same,"IFNA1, IFNB1 and CXCL9 transcripts (qRT-PCR)","[2]; AMO1 and NCI-H929, 16 h","increased IFNA1, IFNB1 and CXCL9 transcripts"
same,micronuclei (DNA content in the cytoplasm),[3],dose-dependent increase of DNA content in the cytoplasm
same,phagocytosis of BTZ-treated MM cells by DCs,5TGM1 MM cells; 5TGM1 Calr^KO cells,calreticulin is necessary for induction of ICD by BTZ; also recorded: abrogated in vitro when DCs were co-cultured with CRT^KOMM cells; also recorded: inhibited
same,phagocytosis of BTZ-treated MM cells by DCs,"5TGM1 MM cells; 5TGM1 WT, BTZ 16 h, then 4 h co-culture with mDCs",engulfed by monocyte-derived DCs after 4 h of co-culture
same,expression of CD83 and CD86 maturation markers on DCs,human DCs; 24 h co-culture with BTZ (5 nM) pretreated AMO1,higher expression of CD86/CD83 on cell surface; also recorded: increased expression of CD83 and CD86 maturation markers
same,expression of CD83 and CD86 maturation markers on DCs,"human DCs; DCs with BTZ alone (5 nM), no MM cells",not triggered by either untreated multiple myeloma cells or BTZ alone
